Here are results for nine compounds from patent publication US20230140290A1, “SALICYLAMIDE DERIVATIVES AND RELATED METHODS OF MAKING” (THE BOARD OF REGENTS OF THE UNIVERSITY OF TEXAS SY, priority 2020, published 2023).

The test system of series [1] is HAdV5-GFP. The series can be described thus: Entry assay (HAdV5-mediated GFP expression). To be noted: for inhibition at 50 µM: A549, 48 h, read-out: (%) Inhibition Entry Assay (50 μM). Type of series: cell-based, HAdV-5. On the procedure: Entry Assay. The anti-HAdV activity was measured in an entry assay using human A549 epithelial cells (3×10^5 cells/well in coming black wall, clear bottom 96-well plates) infected with HAdV5-GFP (2000 vp/cell) in the presence 50 μM of the candidates and in a dose-response assay. A standard infection curve was generated in parallel by infecting cells in the absence of compounds using serial 2-fold dilutions of virus. All reactions were done in triplicate. Cells, virus, and drugs were incubated for 48 h at 37° C. and 5% CO2.

For series [2], the system named is HAdV5-GFP. The series can be described thus: Plaque assay (inhibition of HAdV plaque formation). Type of series: cell-based, HAdV-5. To be noted: for inhibition at 10 µM: read-out: Plaque Assay (%) Inhibition (10 μM); for IC50: read-out: Plaque Assay IC50 (μM), HAdV5-GFP, low MOI, 293β5 cell line; for Selectivity index (SI): ratio of CC50 to IC50 in plaque assay. An outline of the steps: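 Cells at 80-90% confluency infected with HAdV5-GFP at 0.06 vp/cell, rocked 2 h at 37° C, then washed with PBS. Compounds tested at 10 μM and in dose-response from 10 to 0.3 μM, included in the post-infection mixture.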

Series [3] concerns wild-type HAdV5. The series can be described thus: Nuclear-associated HAdV genomes (real-time PCR). In kind it is cell-based, HAdV-5. As for the experimental part: (§1) Nuclear-Associated HAdV Genomes. The nuclear delivery of HAdV genomes was assessed by real-time PCR following nuclear isolation from infected cells. […] Forty-five minutes after infection, A549 cells were trypsinized and collected and then washed twice with PBS. Then, cytoplasmic and nuclear fractions were separated using a hypotonic buffer solution and NP-40 detergent. The cell pellet was resuspended in 500 μL of 1×hypotonic buffer (20 mM Tris-HCl pH 7.4, 10 mM NaCl, 3 mM MgCl2) and incubated for 15 min at 4° C. Then, 25 μL of NP-40 was added and the samples were vortexed. The homogenates were centrifuged for 10 min at 835 g at 4° C. Following the removal of the cytoplasmic fraction (supernatant), HAdV DNA was isolated from the nuclear fraction (pellet) and from the cytoplasmic fraction using the QIAamp DNA Mini Kit (QIAGEN, Valencia, Calif.).
as §1, with “E.Z.N.A.® Tissue” for “QIAamp”, “DNA” for “DNA Mini”, “(Omega Bio-tek, Norcross, Ga.).” for “(QIAGEN, Valencia, Calif.).”

Series [4] deals with wild-type HAdV5. The series can be described thus: HAdV DNA quantification by real-time PCR (DNA replication). In kind it is cell-based, HAdV-5. To be noted: 24 h. On the procedure:
DNA Quantification by Real-Time PCR. […] Infected cells were incubated 24 h at 37° C. in 500 μL of complete DMEM containing 25 μM of either compounds or the same volume of DMSO (positive control). All samples were done in duplicate. After 24 h of incubation at 37° C., DNA was purified from the cell lysate with the QIAamp DNA Mini Kit (QIAGEN, Valencia, Calif.) following the manufacturer's instructions. TaqMan primers and probes for a common region of the HAdV5 were designed with the GenScript Real-Time PCR (TaqMan) Primer Design software (GenScript). […] Real-time PCR mixtures consisted of 9.5 μL of the purified DNA, AQ1 and AQ2 at a concentration of 200 nM each and Probe at a concentration of 50 nM in a total volume of 25 μL. The PCR cycling protocol was 95° C. for 3 min followed by 40 cycles of 95° C. for 10 s and 60° C. for 30 s. Human glyceraldehyde-3-phosphate dehydrogenase (GAPDH) gene was used as internal control. Oligonucleotides sequences for GAPDH and conditions were those previously reported by Henke-Gendo et al. (2012).
For quantification, gene fragments from hexon, and GAPDH were cloned into the pGEM-T Easy vector (Promega) and known concentrations of template were used to generate a standard curve in parallel for each experiment. All assays were performed in thermal cycler LightCycler® 96 System (Roche).
(§2) HAdV DNA Quantification by Real-Time PCR. […] All samples were done in duplicate. After 24 h of incubation at 37° C., DNA was purified from the cell lysate with the E.Z.N.A.® Tissue DNA Kit (Omega Bio-tek, Norcross, Ga.) following the manufacturer's instructions. TaqMan primers and probes for a common region of the HAdV5 were designed with the GenScript Real-Time PCR (TaqMan) Primer Design software (GenScript). […] Real-time PCR mixtures consisted of 9.5 μL of the purified DNA, AQ1 and AQ2 at a concentration of 200 nM each and Probe at a concentration of 50 nM in a total volume of 25 μL. The PCR cycling protocol was 95° C. for 3 min followed by 40 cycles of 95° C. for 10 s and 60° C. for 30 s. Human glyceraldehyde-3-phosphate dehydrogenase (GAPDH) gene was used as internal control. Oligonucleotides sequences for GAPDH and conditions were those previously reported by Henke-Gendo et al. (2012).
as §2, with “DNA” for “HAdV DNA”
(In general: Real-time PCR tracks product formation cycle by cycle.)

Series [5] relates to A549 cells. In words: Cytotoxicity assay (AlamarBlue). To be noted: read-out: CC50 (μM), cytotoxic concentration 50%; A549 cell line, 48 h. On the procedure:
Cytotoxicity Assay. The cytotoxicity of the compounds was analyzed by commercial kit AlamarBlue® (Invitrogen, Ref. DAL1025). A549 cells at a density of 5×10^3 cells per well in 96-well plates were seeded. […] Cells were then incubated at 37° C. for 48 h following the kit protocol. The cytotoxic concentration 50 (CC50) value was obtained using the statistical package GraphPad Prism. This assay was performed in duplicate.
(Resazurin is reduced to fluorescent resorufin, in cell work by metabolically active cells.)

[6] abbreviates: FIG. 3, 45 min post infection, concentrations by CC50 (2-50 μM).
Setting [7] is: A549, read-out: IC50 Entry Assay (μM), HAdV5-GFP, high MOI, A549 cell line.
Setting [8] is: FIG. 5A, 45 min post-infection, 10-fold plaque IC50.

Some results are limits rather than exact numbers.

A word on the inhibition: it is the change of the read-out against control, counted positive when it falls. For orientation: IC50 means the concentration at which inhibition is half-maximal. With `O=C(Nc1ccc([N+](=O)[O-])cc1)c1cc(Cl)ccc1O` [Compound 13, 5-Chloro-2-hydroxy-N-(4-nitrophenyl)benzamide], the inhibition at 50 µM in series [1] turned out to be 100%. In series [2], the inhibition at 10 µM was 98 ± 2.8% and the half-inhibitory concentration (IC50) worked out at 0.11 µM. For the same compound, the “amount of nuclear-associated HAdV genomes versus DMSO” value in series [3] (setting [6]) is “significant (p≤0.0001) reductions”.

Turning to `O=C(Nc1cc(F)cc(C(F)(F)F)c1)c1ccc(Cl)cc1O` [Compound 20, 4-Chloro-N-(3-fluoro-5-(trifluoromethyl)phenyl)-2-hydroxybenzamide], the “inhibition of HAdV-5 DNA replication (qPCR)” value (“inhibition … (qPCR)” for short) in series [4] (FIG. 4, concentrations by CC50 (2-50 μM)) was “low inhibition”. Also, in series [5], the CC50 was 20.6 µM. Moreover, the inhibition at 50 µM in series [1] amounted to 100%. Besides, the concentration for half-maximal inhibition (IC50) in series [1] (setting [7]) was 0.26 ± 0.09 µM. In series [2], the “Selectivity index (SI)” value was 186.8, the inhibition at 10 µM was found to be 96.8 ± 1.9% and the half-inhibitory concentration (IC50) amounted to 0.11 µM. In addition, the “amount of nuclear-associated HAdV genomes versus DMSO” value in series [3] (setting [6]) is “partially inhibited”.

Turning to `CC[C@@H](C)[C@H](NC(=O)c1cc(Cl)ccc1O)C(=O)Nc1ccc([N+](=O)[O-])cc1Cl` [Compound 62, 5-Chloro-N-((2S,3R)-1-((2-chloro-4-nitrophenyl)amino)-3-methyl-1-oxopentan-2-yl)-2-hydroxybenzamide], the CC50 in series [5] amounted to 20.2 µM. Also, in series [1], the inhibition at 50 µM came to 98.2 ± 0.5%. For the same compound, the IC50 in series [1] (setting [7]) came out at 2.5 ± 0.22 µM. Further, in series [2], the “Selectivity index (SI)” value worked out at 127.6, the inhibition at 10 µM came out at 99 ± 0.3% and the IC50 turned out to be 0.16 µM. For the same compound, in series [3] (setting [6]), the “amount of nuclear-associated HAdV genomes versus DMSO” value was “significant (p≤0.0001) reductions”.

As for `CC(C)[C@H](NC(=O)c1cc(Cl)ccc1NS(C)(=O)=O)C(=O)Nc1ccc([N+](=O)[O-])cc1Cl` [Compound 70, (S)-5-Chloro-N-(1-((2-chloro-4-nitrophenyl)amino)-3-methyl-1-oxobutan-2-yl)-2-(methylsulfonamido)benzamide], in series [5], the CC50 worked out at 174 µM. The inhibition at 50 µM in series [1] was 99.1 ± 1.2%. For the same compound, the IC50 in series [1] (setting [7]) came to 1.38 ± 0.1 µM. In series [2], the “Selectivity index (SI)” value is 256.0, the inhibition at 10 µM stood at 99.1 ± 1.2% and the IC50 worked out at 0.68 µM. Moreover, the “amount of nuclear-associated HAdV genomes versus DMSO” value in series [3] (setting [6]) is “significant (p≤0.0001) reductions”.

Take `O=C(Nc1ccc(NCc2ccc(O)cc2)cc1Cl)c1cc(Cl)ccc1O` [Compound 101, 5-Chloro-N-(2-chloro-4-((4-hydroxybenzyl)amino)phenyl)-2-hydroxybenzamide]: in series [4] (FIG. 6A, 10-fold plaque IC50), the “inhibition … (qPCR)” value was “low inhibition”. The CC50 in series [5] is 116 µM. Further, the inhibition at 50 µM in series [1] came out at 83.3%. In addition, the 50% inhibitory concentration (IC50) is 15.2 to 30.8 µM in series [1] (setting [7]), 25 ± 6.9 µM in series [1] ({}) and 1.11 µM in series [2]. The “Selectivity index (SI)” value in series [2] is reported as 104.1. Besides, in series [2], the inhibition at 10 µM worked out at 80.7 ± 9.1%. The “amount of nuclear-associated HAdV genomes versus DMSO” value in series [3] (setting [8]) is listed as “significant reductions”.

Regarding `O=C(Nc1ccc(NCc2ccc(O)nc2)cc1Cl)c1cc(Cl)ccc1O` [Compound 112, 5-Chloro-N-(2-chloro-4-(((6-hydroxypyridin-3-yl)methyl)amino)phenyl)-2-hydroxybenzamide], in series [4] (FIG. 6A, 10-fold plaque IC50), the “inhibition … (qPCR)” value is “low inhibition”. In addition, the CC50 in series [5] turned out to be 98.5 µM. Also, the inhibition at 50 µM in series [1] was 51.7 ± 9.8%. Also, the 50% inhibitory concentration (IC50) in series [1] (setting [7]) was above 50 µM. Moreover, in series [2], the “Selectivity index (SI)” value amounted to 126.3, the inhibition at 10 µM was 100% and the half-inhibitory concentration (IC50) amounted to 0.78 µM. In addition, in series [3] (setting [8]), the “amount of nuclear-associated HAdV genomes versus DMSO” value is reported as “significant reductions”.

With `CC(C)(Cc1ccccc1)ON(c1ccc(NC(=O)c2cc(Cl)ccc2O)c(Cl)c1)C(C)(C)Cc1ccccc1` [Compound 115, 5-Chloro-N-(2-chloro-4-((2-methyl-1-phenylpropan-2-yl)((2-methyl-1-phenylpropan-2-yl)oxy)amino)phenyl)-2-hydroxybenzamide], the CC50 in series [5] is 165 µM. Moreover, the inhibition at 50 µM in series [1] came to 59.1%. For the same compound, in series [1] (setting [7]), the half-maximal inhibitory concentration (IC50) was 34.1 µM. Further, in series [2], the “Selectivity index (SI)” value is given as 129.7, the inhibition at 10 µM worked out at 100% and the half-maximal inhibitory concentration (IC50) is 1.27 µM. Moreover, the “amount of nuclear-associated HAdV genomes versus DMSO” value in series [3] (setting [8]) is listed as “no significant differences”.

Regarding `CC(C)(CCO)Nc1ccc(NC(=O)c2cc(Cl)ccc2O)c(Cl)c1` [Compound 118, 5-Chloro-N-(2-chloro-4-((4-hydroxy-2-methylbutan-2-yl)amino)phenyl)-2-hydroxybenzamide], the “inhibition … (qPCR)” value in series [4] (FIG. 6A, 10-fold plaque IC50) was “low inhibition”. In series [5], the CC50 amounted to 170 ± 4.2 µM. Further, the inhibition at 50 µM in series [1] is 42.1 ± 3%. In addition, the IC50 in series [1] (setting [7]) was above 50 µM. In series [2], the “Selectivity index (SI)” value was 188.3, the inhibition at 10 µM amounted to 92.3% and the IC50 turned out to be 0.9 µM. Further, the “amount of nuclear-associated HAdV genomes versus DMSO” value in series [3] (setting [8]) is reported as “no significant differences”.

On to `CC(C)[C@H](NC(=O)c1cc(Cl)ccc1O)C(=O)Nc1ccc(NC2CCCC2)cc1Cl` [Compound 147, (S)-5-chloro-N-(1-((2-chloro-4-(cyclopentylamino)phenyl)amino)-3-methyl-1-oxobutan-2-yl)-2-hydroxybenzamide], for which the CC50 in series [5] was found to be 111 ± 8.4 µM. For the same compound, in series [2], the “Selectivity index (SI)” value worked out at 28.9, the inhibition at 10 µM stood at 99.5 ± 0.7% and the IC50 amounted to 3.83 ± 0.42 µM.
